Test results as given in ChEMBL document CHEMBL1132743, “Synthesis and biological evaluation of novel piperidine carboxamide derived calpain inhibitors” (Bioorg Med Chem Lett, 2000).
Square brackets hold non-standard residues; d marks the D form. Peptide text beside a SMILES is read from it. * marks the point of attachment. ξ: configuration not given here. ξF = NC(Cc1ccccc1)C(=O)O; Cbz = O=C(OCc1ccccc1)*

Columns and labels:
[1] = biological target: T1, Calpain-1 catalytic subunit (Homo sapiens, UniProt P07384); assay: Inhibition of Suc-Leu-Tyr-AMC binding to human mu-calpain from erythrocytes; type: biochemical
T1 sequence (P07384 whole entry): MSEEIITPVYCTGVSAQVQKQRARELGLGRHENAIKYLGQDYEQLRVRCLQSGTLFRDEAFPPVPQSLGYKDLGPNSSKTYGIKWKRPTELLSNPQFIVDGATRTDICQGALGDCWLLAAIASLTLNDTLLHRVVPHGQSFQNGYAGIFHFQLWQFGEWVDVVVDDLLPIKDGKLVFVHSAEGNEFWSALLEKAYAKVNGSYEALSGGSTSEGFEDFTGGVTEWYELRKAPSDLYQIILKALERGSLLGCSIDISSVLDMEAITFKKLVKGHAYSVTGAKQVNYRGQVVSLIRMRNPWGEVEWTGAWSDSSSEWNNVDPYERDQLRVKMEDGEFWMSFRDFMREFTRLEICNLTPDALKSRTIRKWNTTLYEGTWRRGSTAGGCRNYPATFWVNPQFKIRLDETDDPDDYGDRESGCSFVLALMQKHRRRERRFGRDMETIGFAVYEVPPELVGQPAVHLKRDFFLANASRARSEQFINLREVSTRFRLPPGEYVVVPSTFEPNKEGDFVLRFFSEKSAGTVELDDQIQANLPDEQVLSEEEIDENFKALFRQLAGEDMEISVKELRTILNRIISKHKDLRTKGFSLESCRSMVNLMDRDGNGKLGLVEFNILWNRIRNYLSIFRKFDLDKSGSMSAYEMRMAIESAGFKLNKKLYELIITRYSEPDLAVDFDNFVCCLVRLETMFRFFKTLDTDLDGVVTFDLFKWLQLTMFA

[2] = Inhibition of calpain-mediated pp60src degradation in platelets; type: functional, Homo sapiens
Mus musculus = organism: Mus musculus; assay: Inhibitory activity of compound was tested for lethal convulsions induced by NMDA in mice; type: functional
Cathepsin B = Cathepsin B (Homo sapiens, UniProt P07858); assay: Inhibition of human Cathepsin B

Row | Compound | Ki [1] [µM] | also measured
1 | NC(=O)C(=O)C(Cc1ccccc1)NC(=O)C1CCN(Cc2ccc3ccccc3c2)CC1 (stereo not given) | 13.6 | 
2 | NC(=O)C(=O)C(Cc1ccccc1)NC(=O)C1CCN(S(=O)(=O)c2ccc3ccccc3c2)CC1 (stereo not given) | 0.45 | 
3 | CCNC(=O)C(=O)C(Cc1ccccc1)NC(=O)C1CCN(S(=O)(=O)c2ccc3ccccc3c2)CC1 (stereo not given) | 800 | 
4 | NC(=O)C(=O)C(Cc1ccccc1)NC(=O)C1CCN(C(=O)c2ccc3ncccc3c2)CC1 (stereo not given) | 0.16 | 
5 | CC(C)[C@H](NC(=O)OCc1ccccc1)C(=O)NC(C=O)Cc1ccccc1 (stereo partly drawn) (Cbz-Val-[ξF]-aldehyde) |  | IC50 [2]: 0.7 µM
6 | O=C(NCCCN1CCOCC1)C(=O)C(Cc1ccccc1)NC(=O)C1CCN(S(=O)(=O)c2ccc3ccccc3c2)CC1 (stereo not given) | 0.81 | 
7 | O=C(NCCCN1CCOCC1)C(=O)C(Cc1ccccc1)NC(=O)C1CCN(C(=O)c2ccc3ccccc3c2)CC1 (stereo not given) | 0.96 | 
8 | NC(=O)C(=O)C(Cc1ccccc1)NC(=O)C1CCN(C(=O)c2cc3ccccc3s2)CC1 (stereo not given) | 0.009 | ED50 (Mus musculus): 1 mg/kg; Ki (Cathepsin B): 3.2 µM
9 | NC(=O)C(=O)C(Cc1ccccc1)NC(=O)C1CCN(C(=O)c2ccc3ccccc3c2)CC1 (stereo not given) | 0.03 | ED50 (Mus musculus): 1.3 mg/kg; Ki (Cathepsin B): 7.3 µM; IC50 [2]: 1.8 µM

Continued, in another order:

Row | Ki [1] [µM] | Compound | also measured
10 | 33 | CCC(NC(=O)C1CCN(C(=O)/C=C/c2ccccc2)CC1)C(=O)C(N)=O (stereo not given) | 
11 | 1.35 | CC(C)CC(NC(=O)C1CCN(C(=O)/C=C/c2ccccc2)CC1)C(=O)C(N)=O (stereo not given) | 
12 | 0.56 | NC(=O)C(=O)C(Cc1ccccc1)NC(=O)C1CCN(C(=O)c2ccccc2)CC1 (stereo not given) | 
13 | 0.67 | NC(=O)C(=O)C(Cc1ccccc1)NC(=O)C1CCN(C(=O)c2cnc3ccccc3c2)CC1 (stereo not given) | 
14 | 0.46 | NC(=O)C(=O)C(Cc1ccccc1)NC(=O)C1CCN(C(=O)/C=C/c2ccccc2)CC1 (stereo not given) | 
15 | 13.5 | NC(=O)C(=O)C(Cc1ccccc1)NC(=O)C1CCN(C(=O)/C=C/c2ccncc2)CC1 (stereo not given) | 
